The source of these data is US20260317277A1, “ARYLALKYLAMINE COMPOUND, AND PREPARATION METHOD THEREFOR AND USE THEREOF” (RENHE YIKANG GROUP CO., LTD., priority 2024, published 2026).

Data set [1] in a line: Pharmacokinetic study in SD rats. Format: in vivo, Male Sprague-Dawley (SD) rats. Conditions: male SD rats, oral gavage; Evocalcet = 100. The procedure: Animal Information: Male Sprague-Dawley (SD) rats, aged 7-8 weeks, were used. Each group consisted of 3-5 rats.
Dosing Information: The rats were fasted for more than 12 hours prior to administration. A single dose was administered via oral gavage.
Blood Sampling Time Points: Blood samples were collected from the tail vein before administration and at 0.25, 0.5, 1, 2, 4, 6, 8, and 24 hours post-administration. A volume of 100 μL of blood was collected at each time point.
Sample Processing and Storage: The blood samples were transferred into 1.5 mL microcentrifuge tubes, with 50 μL per tube (two tubes per sample). Centrifugation was completed within 2 hours. Whole blood samples were kept on ice prior to centrifugation. Centrifugation was performed at 4000 rpm, 2-8° C., for 10 minutes. After collecting the supernatant, it was stored at −80° C. or below if not analyzed immediately.
Column: An InfinityLab Poroshell 120 SB-C18 column (2.1×100 mm, 2.7 μm) was used. Column Temperature: The temperature was maintained at 30° C. Flow Rate: The flow rate was set at 0.3 mL/min. Run Time: The total run time was 9.5 minutes. Post-run Time: A post-run time of 2 minutes was applied. Injection Volume: An injection volume of 2 μL was used. Mobile Phase: A mixture of methanol and 0.1% formic acid was employed as the mobile phase. Gradient Elution: Gradient elution was performed according to the table below.
b) the Mass Spectrometry Conditions were Set as Follows: […]
Preparation of Standard Solutions: Appropriate volumes of Evocalcet, Compound 2, and Compound 3 stock solutions were precisely measured and diluted with 50% methanol to prepare standard solutions with concentrations of 80, 200, 1000, 5000, 10000, 20000, and 40000 ng/mL.
Preparation of Internal Standard (Clenbuterol Hydrochloride) Solution: 10 mg of clenbuterol hydrochloride was accurately weighed and transferred into a 10 mL volumetric flask. […] An appropriate volume of the stock solution was precisely measured and diluted with methanol to prepare a 2000 ng/mL internal standard working solution. […]

The conditions of data set [2]: Review Report on Evocalcet Tablets 1 mg and 2 mg, March 2018; cited from earlier work.

SMILES strings stand for the structures.

Consider `C[C@@H](N[C@H]1CCN(c2ccc(CC(=O)O)cc2)C1)c1cccc2ccccc12` [Evocalcet], for which the “Relative bioavailability (%)” value in data set [1] was 100%. The adverse reactions result in data set [2] is “hypocalcemia, vomiting, nausea, chills, QT prolongation, mood disturbances, cardiac arrhythmia, hypotension, and cramps”.

`C[C@@H](N[C@H]1CCN(c2ccc(CC(=O)O)cc2F)C1)c1cccc2ccccc12` [Compound 2, 2-(3-fluoro-4-((S)-3-(((R)-1-(naphthalen-1-yl)ethyl)amino)pyrrolidin-1-yl)phenyl)acetic Acid]: the “Relative bioavailability (%)” value in data set [1] is 136%.

As for `Cc1cc(CC(=O)O)ccc1N1CC[C@H](N[C@H](C)c2cccc3ccccc23)C1` [Compound 3, 2-(3-methyl-4-((S)-3-(((R)-1-(naphthalen-1-yl)ethyl)amino)pyrrolidin-1-yl)phenyl)acetic Acid], in data set [1], the “Relative bioavailability (%)” value is given as 144%.
